Laboratory results taken from PubChem BioAssay (NCI).
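Growth conditions: 96-well plates. Treatment: test compound, 48 hours, 5 concentrations. Analysis: linear interpolation between bracketing concentrations; unreached endpoints set to highest concentration. Here, GI50 denotes the concentration required for 50% inhibition of growth. At the TGI there is no net growth.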

Experiments:
Test in all cases: NCI anticancer screen, dose series, 48 h
786-0 renal = test system: 786-0 renal
A498 renal = test system: A498 renal
A549 NSCLC = test system: A549 NSCLC
ACHN renal = test system: ACHN renal
BT-549 breast = test system: BT-549 breast
CAKI-1 renal = test system: CAKI-1 renal
COLO 205 colon = test system: COLO 205 colon
DU-145 prostate = test system: DU-145 prostate
EKVX NSCLC = test system: EKVX NSCLC
HCC-2998 colon = test system: HCC-2998 colon
HCT-116 colon = test system: HCT-116 colon
HCT-15 colon = test system: HCT-15 colon
HL-60(TB) leukemia = test system: HL-60(TB) leukemia
HOP-62 NSCLC = test system: HOP-62 NSCLC
HOP-92 NSCLC = test system: HOP-92 NSCLC
HS 578T breast = test system: HS 578T breast
HT29 colon = test system: HT29 colon
IGROV1 ovarian = test system: IGROV1 ovarian
K-562 leukemia = test system: K-562 leukemia
KM12 colon = test system: KM12 colon
LOX IMVI melanoma = test system: LOX IMVI melanoma
M14 melanoma = test system: M14 melanoma
MALME-3M melanoma = test system: MALME-3M melanoma
MCF7 breast = test system: MCF7 breast
MDA-MB-231 breast = test system: MDA-MB-231 breast
MDA-MB-435 = test system: MDA-MB-435
NCI-H226 lung = test system: NCI-H226 lung
NCI-H23 lung = test system: NCI-H23 lung
NCI-H460 lung = test system: NCI-H460 lung
NCI-H522 lung = test system: NCI-H522 lung
NCI/ADR-RES ovarian = test system: NCI/ADR-RES ovarian
OVCAR-3 ovarian = test system: OVCAR-3 ovarian
OVCAR-4 ovarian = test system: OVCAR-4 ovarian
OVCAR-5 ovarian = test system: OVCAR-5 ovarian
OVCAR-8 ovarian = test system: OVCAR-8 ovarian
RPMI-8226 leukemia = test system: RPMI-8226 leukemia
RXF 393 renal = test system: RXF 393 renal
SF-268 CNS = test system: SF-268 CNS
SF-295 CNS = test system: SF-295 CNS
SF-539 CNS = test system: SF-539 CNS
SK-MEL-2 melanoma = test system: SK-MEL-2 melanoma
SK-MEL-28 melanoma = test system: SK-MEL-28 melanoma
SK-MEL-5 melanoma = test system: SK-MEL-5 melanoma
SK-OV-3 ovarian = test system: SK-OV-3 ovarian
SN12C renal = test system: SN12C renal
SNB-19 CNS = test system: SNB-19 CNS
SNB-75 CNS = test system: SNB-75 CNS
SR leukemia = test system: SR leukemia
SW-620 colon = test system: SW-620 colon
T-47D breast = test system: T-47D breast
TK-10 renal = test system: TK-10 renal
U251 CNS = test system: U251 CNS
UACC-257 melanoma = test system: UACC-257 melanoma
UACC-62 melanoma = test system: UACC-62 melanoma
UO-31 renal = test system: UO-31 renal

## O=C1c2ccccc2S(=O)(=O)N1CSC(=S)N1CCCCC1
786-0 renal
  GI50: > 100 µM
  TGI: > 100 µM
A498 renal
  GI50: > 100 µM
  TGI: > 100 µM
A549 NSCLC
  GI50: > 100 µM
  TGI: > 100 µM
ACHN renal
  GI50: > 100 µM
  TGI: > 100 µM
BT-549 breast
  GI50: > 100 µM
  TGI: > 100 µM
CAKI-1 renal
  GI50: > 100 µM
  TGI: > 100 µM
COLO 205 colon
  GI50: > 100 µM
  TGI: > 100 µM
DU-145 prostate
  GI50: > 100 µM
  TGI: > 100 µM
EKVX NSCLC
  GI50: > 100 µM
  TGI: > 100 µM
HCC-2998 colon
  GI50: > 100 µM
  TGI: > 100 µM
HCT-116 colon
  GI50: > 100 µM
  TGI: > 100 µM
HCT-15 colon
  GI50: > 100 µM
  TGI: > 100 µM
HL-60(TB) leukemia
  GI50: 32.9 nM
  TGI: > 100 µM
HOP-62 NSCLC
  GI50: > 100 µM
  TGI: > 100 µM
HOP-92 NSCLC
  GI50: > 100 µM
  TGI: > 100 µM
HS 578T breast
  GI50: > 100 µM
  TGI: > 100 µM
HT29 colon
  GI50: > 29.2 µM
  TGI: > 100 µM
IGROV1 ovarian
  GI50: > 89 µM
  TGI: > 100 µM
K-562 leukemia
  GI50: > 94.6 µM
  TGI: > 100 µM
KM12 colon
  GI50: > 55.7 µM
  TGI: > 100 µM
LOX IMVI melanoma
  GI50: > 100 µM
  TGI: > 100 µM
M14 melanoma
  GI50: > 100 µM
  TGI: > 100 µM
MALME-3M melanoma
  GI50: > 100 µM
  TGI: > 100 µM
MCF7 breast
  TGI: > 100 µM
MDA-MB-231 breast
  GI50: > 100 µM
  TGI: > 100 µM
MDA-MB-435
  GI50: > 100 µM
  TGI: > 100 µM
NCI-H226 lung
  GI50: > 100 µM
  TGI: > 100 µM
NCI-H23 lung
  GI50: > 100 µM
  TGI: > 100 µM
NCI-H460 lung
  GI50: 5.5 µM
  TGI: > 100 µM
NCI-H522 lung
  GI50: 2050 nM
  TGI: > 100 µM
NCI/ADR-RES ovarian
  GI50: > 100 µM
  TGI: > 100 µM
OVCAR-3 ovarian
  GI50: > 100 µM
  TGI: > 100 µM
OVCAR-4 ovarian
  GI50: > 100 µM
  TGI: > 100 µM
OVCAR-5 ovarian
  GI50: > 100 µM
  TGI: > 100 µM
OVCAR-8 ovarian
  GI50: > 100 µM
  TGI: > 100 µM
RPMI-8226 leukemia
  GI50: 205 nM
  TGI: 607 nM
RXF 393 renal
  GI50: > 100 µM
  TGI: > 100 µM
SF-268 CNS
  GI50: > 100 µM
  TGI: > 100 µM
SF-295 CNS
  GI50: > 100 µM
  TGI: > 100 µM
SF-539 CNS
  GI50: > 100 µM
  TGI: > 100 µM
SK-MEL-2 melanoma
  GI50: > 100 µM
  TGI: > 100 µM
SK-MEL-28 melanoma
  GI50: > 100 µM
  TGI: > 100 µM
SK-MEL-5 melanoma
  GI50: 33.2 µM
  TGI: > 100 µM
SK-OV-3 ovarian
  GI50: > 100 µM
  TGI: > 100 µM
SN12C renal
  GI50: > 46.5 µM
  TGI: > 100 µM
SNB-19 CNS
  GI50: > 100 µM
  TGI: > 100 µM
SNB-75 CNS
  GI50: > 100 µM
  TGI: > 100 µM
SR leukemia
  GI50: 266 nM
  TGI: > 100 µM
SW-620 colon
  GI50: > 100 µM
  TGI: > 100 µM
T-47D breast
  GI50: > 100 µM
  TGI: > 100 µM
TK-10 renal
  GI50: > 100 µM
  TGI: > 100 µM
U251 CNS
  GI50: > 100 µM
  TGI: > 100 µM
UACC-257 melanoma
  GI50: > 100 µM
  TGI: > 100 µM
UACC-62 melanoma
  TGI: > 57.3 µM
UO-31 renal
  GI50: > 100 µM
  TGI: > 100 µM
